# Experimental data from patent publication US20090081314A1, “Glycemic Control, Diabetes Treatment, and Other Treatments with Acetyl Cholinesterase Inhibitors” (priority 2007, published 2009).
# Read-outs that look alike come from different tables or passages of the source.
# Columns and labels:
# [1] = Insulin requirement of diabetic patients on donepezil (case studies); type: in vivo, human; conditions: for insulin requirements at bedtime (lantus): patient eleven, before 35 units
# [2] = Renal function (BUN, creatinine, ultrafiltration) in patients on donepezil (case studies); type: in vivo, human
# [3] = Other clinical observations in diabetic patients on donepezil (case studies); type: in vivo, human
# [4] = Coronary artery disease / congestive failure case studies: blood pressure and symptoms; type: in vivo, human
# Source text: The present disclosure provides clinical evidence of the use of an acetyl cholinesterase inhibitor for treating coronary artery diseases including heart disease.
# [5] = system: HIV; test: HIV infection case studies: viral load and CD4 count; type: in vivo, human; conditions: for viral load / CD4 count: on antivirals
# Source text: The state of HIV infection is often monitored by CD4 counts (the higher the better) and circulating virus (the lower the better).
# [6] = for fasting blood glucoses: patient eleven
# [7] = Cephalization of body mass / weight loss case studies; conditions: patient seventeen; three months of donepezil 5 mg daily, no dieting or exercise program
# [8] = patient twelve, over the next week of donepezil 5 mg daily
# [9] = patient three, donepezil 5 mg daily, over the next week
# [10] = patient six, two months of donepezil 5 mg daily
structure (smiles),measurement,setting,value
COc1cc2c(cc1OC)C(=O)C(CC1CCN(Cc3ccccc3)CC1)C2 (centres unmarked) [donepezil],evening dose of glargine insulin,"[1]; patient eighteen, donepezil 10 mg orally daily, one month, before 5 units",discontinued
same,insulin requirements at bedtime (lantus),[1]; donepezil increased to 10 mg daily,12 units
same,insulin requirements at bedtime (lantus),[1]; over one month of donepezil 5 mg orally daily,25 units
same,pre prandial insulin coverage,"[1]; patient four, after one month of donepezil 5 mg daily",eliminated
same,requirement for lantus insulin,"[1]; patient nineteen, donepezil 5 then 10 mg, before 12 units at bedtime",no longer required lantus insulin
same,daily insulin requirement over a 24 hour period,"[1]; patient one, after an additional month (two months) of donepezil 5 mg daily, before approx. 32 units",approximately 12 units
same,insulin requirement for 24 hour period,"[1]; patient one, insulin pump, after one month of donepezil 5 mg orally daily, before approx. 32 units",< 20 units
same,pre-prandial insulin coverage (Novolog),"[1]; patient twelve, over 4 days of donepezil 5 mg daily, before 8 units",4 units
same,evening dose of lantus insulin,"[1]; patient twelve, over 4 days of donepezil 5 mg daily, before 30 units",20 units
same,evening dose of lantus,[1]; [8],10 units
same,pre prandial insulin coverage,[1]; [8],eliminated
same,dose of Humulin N in the AM,"[1]; po, 5 mg",10 units
same,evening dose of Humulin,"[1]; po, 5 mg",20 units
same,creatinine,"[2]; patient fifteen, two months of donepezil 5 mg daily, before 1.8",1.1
same,BUN,"[2]; patient fifteen, two months of donepezil 5 mg daily, before 40",24
same,creatinine,"[2]; patient fourteen, five weeks of donepezil 5 then 10 mg, admission 2.0",1.2
same,ultrafiltration per dialysis,"[2]; patient sixteen, hemodialysis, two months of donepezil 5 mg daily, before 5-6 liters three times weekly",less than 2 liter
same,creatinine,"[2]; patient twelve, one month of donepezil 5 mg daily, admission 1.6",0.9
same,BUN,"[2]; patient twelve, one month of donepezil 5 mg daily, admission 38",21
same,lymphedema in lower extremities,"[3]; patient five, over the next month of donepezil 5 mg orally daily",notable decline
same,symptoms of painful diabetic polyneuropathy,"[3]; patient four, one month of donepezil 5 mg daily",significantly reduced
same,electrocardiogram,"[3]; patient fourteen (history of atrial fibrillation), donepezil 10 mg orally daily, about five weeks",normal sinus rhythm
same,foot drop,"[3]; patient one, two months of donepezil 5 mg orally daily",resolved
same,painful symptoms of diabetic polyneuropathy,"[3]; patient seven, donepezil 5 mg orally daily",diminution
same,edema in intact lower extremity,"[3]; patient twelve, donepezil 5 mg daily",eliminated
same,blood pressure,"[4]; patient eight, after one month, midodrine and diuretic discontinued",120/70
same,blood pressure,"[4]; patient eight, ensuing week of donepezil 5 mg daily",110/60
same,blood pressure,"[4]; patient eight, over 5 days of donepezil 5 mg daily, midodrine decreased, before 85/60",100/60
same,blood pressure,"[4]; patient eighteen, next 10 days of donepezil 5 mg daily",100/70
same,blood pressure,"[4]; patient eighteen, over 7 days of donepezil 5 mg daily, before 80/50",90/60
same,blood pressure,"[4]; patient seven, donepezil 5 mg daily, furosemide 20 mg every day",110/70
same,diastolic blood pressure,"[4]; patient seven, first two weeks of donepezil 5 mg daily",less than 80 mm Hg
same,diastolic blood pressure,"[4]; patient seven, next two weeks of donepezil 5 mg daily",70 mm Hg
same,blood pressure,"[4]; patient seventeen, follow up one month later on donepezil 5 mg daily",120/60
same,blood pressure,"[4]; patient seventeen, ten days of donepezil 5 mg daily, midodrine discontinued",greater than 100/60
same,blood pressure,[4]; [9],normalized
same,symptoms of congestive heart failure,[4]; [9],resolved
same,blood pressure,"[4]; patient twenty, donepezil 5 mg daily, two weeks after nitrates and lisinopril discontinued",120/70
same,blood pressure,"[4]; patient twenty, donepezil 5 mg daily, week after lisinopril decreased to 5 mg daily",110/70
same,blood pressure,"[4]; patient twenty, over two weeks of donepezil 5 mg daily, before 80/50",100/70
same,shortness of breath,"[4]; patient two, after one week of donepezil 5 mg daily",no further episodes of shortness of breath
same,blood pressure,"[4]; patient two, after one week of donepezil 5 mg daily with furosemide 40 mg daily",100/60
same,blood pressure,"[4]; patient two, one week later, furosemide 20 mg every other day",110/70
same,viral load,"[5]; patient six, one month of donepezil 5 mg orally daily, before 1-2 million",1 million
same,CD4 count,"[5]; patient six, one month of donepezil 5 mg orally daily, before less than 20",26
same,CD4 count,[5]; [10],42
same,viral load,[5]; [10],non existent (below measurement detection)
same,CD4 count,"[5]; patient thirteen, two months of donepezil 5 mg daily, before 24",36
same,viral load,"[5]; patient thirteen, two months of donepezil 5 mg daily, before over 4 million",1.6 million
same,weight gained,"[5]; patient thirteen, two months of donepezil 5 mg daily",over 15 pounds
same,fasting blood glucoses,[6]; donepezil 10 mg daily,less than 80 mg %
same,fasting blood glucoses,"[6]; first month, donepezil 5 mg orally daily",less than 80 mg %
same,fasting blood sugars,"[6]; patient fifteen, after one week of donepezil 5 mg daily",less than 100 mg %
same,preprandial blood sugars,"[6]; patient five, after 3 days of donepezil 5 mg orally daily plus prandin 2 mg, before 100-120",less than 80 mg %
same,blood sugars,"[6]; patient five, donepezil 5 mg daily, prandin discontinued, 1800 ADA diet",less than 110 mg %
same,"blood sugar at lunch, one episode","[6]; patient five, donepezil 5 mg orally daily plus prandin",less than 50 mg %
same,other measured blood glucoses,"[6]; patient nine, donepezil 10 mg, all oral hypoglycemic agents discontinued",less than 120 mg %
same,fasting blood glucose levels,"[6]; patient nine, over 7 days of donepezil 5 mg orally daily, micronase discontinued",less than 90 mg %
same,blood glucose values,"[6]; patient nineteen, donepezil 10 mg, metformin discontinued, 1800 cal ADA diet",less than 120 mg %
same,fasting blood sugars,"[6]; patient sixteen, following donepezil 5 mg daily, glipizide discontinued, before 150-200",less than 100 mg %
same,fasting blood sugars,"[6]; patient ten, first week of donepezil 5 mg orally daily",less than 100 mg %
same,blood sugars,"[6]; patient ten, next 7 days of donepezil 5 mg orally daily",less than 111 mg %
same,fasting blood sugars,"[6]; patient twelve, first 4 days of donepezil 5 mg daily",less than 100 mg %
same,fasting blood sugars,"[6]; patient twelve, next week of donepezil 5 mg daily",less than 100 mg %
same,over all weight loss,[7],greater than 20 pounds
